Measured values taken from ChEMBL document CHEMBL5120865, “Exploration of 6-methyl-7-(Hetero)Aryl-7-Deazapurine ribonucleosides as antileishmanial agents” (Eur J Med Chem, 2022).

Legend:
[1] = Cytotoxicity against Swiss mouse peritoneal macrophages assessed as reduction in cell viability measured after 5 days by microscopic analysis; type: toxicity, cell-based, Peritoneal macrophage; conditions: time 5 day
Leishmania infantum [2] = test: Antileishmanial activity against sodium stibogluconate, potassium antimonyl tartrate and PMM resistant intracellular Leishmania infantum MHOM/FR/96/LEM3323-CI4 PMM promastigotes infected in Swiss mouse peritoneal macrophages assessed as inhibition of parasite growth measured after 96 hrs by microscopic analysis; type: functional, organism-based; conditions: Peritoneal macrophage
Trypanosoma cruzi = test: Antitrypanosomal activity against nifurtimox-sensitive Tulahuen CL2 amastigotes expressing beta galactosidase infected in human MRC5 cells assessed as inhibition of parasite growth using chlorophenol red beta-D-galactopyranoside as substrate and measured after 7 days by spectrophotometric analysis; type: functional, organism-based; conditions: Tulahuen CL2, MRC5, 168 h, read-out: EC50
[3] = Metabolic stability in golden hamster liver microsomes S9 fraction assessed as CYP450-mediated metabolism by measuring parent compound remaining measured after 60 mins in presence of NADPH; type: ADME, subcellular, Mesocricetus auratus; conditions: read-out: Stability
[4] = Metabolic stability in mouse liver microsomes S9 fraction assessed as CYP450-mediated metabolism by measuring parent compound remaining measured after 15 mins in presence of NADPH; type: ADME, subcellular; conditions: read-out: Stability
Cytochrome P450 [5] = target: T1, Cytochrome P450 (Homo sapiens, UniProt P04798+P05177+P05181+P08684+P10632+P10635+P11509+P11712+P13584+P20813+P20815+P20853+P24462+P24903+P33260+P33261+P51589+P78329+P98187+Q02928+Q08477+Q16678+Q16696+Q5TCH4+Q6VVX0+Q7Z449+Q8TAV3+Q96SQ9+Q9HB55); test: Metabolic stability in human liver microsomes S9 fraction assessed as CYP450-mediated metabolism by measuring parent compound remaining measured after 15 mins in presence of NADPH; type: ADME, subcellular; conditions: read-out: Stability
Cytochrome P450 [6] = target: T1, Cytochrome P450; test: Metabolic stability in human liver microsomes S9 fraction assessed as CYP450-mediated metabolism by measuring parent compound remaining measured after 60 mins in presence of NADPH; type: ADME, subcellular; conditions: read-out: Stability
Leishmania infantum [7] = test: Antileishmanial activity against intracellular Leishmania infantum MHOM/MA(BE)/67 amastigotes infected in golden hamster assessed as reduction of amastigote burdens in liver at 50 mg/kg, po SID for 10 days by geimsa staining based microscopic analysis; type: functional; set-up: scale not given: the % may be the effect or the level left; conditions: time 10 day
Leishmania infantum [8] = test: Antileishmanial activity against intracellular Leishmania infantum MHOM/MA(BE)/67 amastigotes infected in golden hamster assessed as reduction of amastigote burdens in spleen at 50 mg/kg, po SID for 10 days by geimsa staining based microscopic analysis; type: functional; set-up: scale not given: the % may be the effect or the level left; conditions: time 10 day
Leishmania infantum [9] = test: Antileishmanial activity against intracellular Leishmania infantum MHOM/MA(BE)/67 amastigotes infected in golden hamster assessed as reduction of amastigote burdens in bone marrow at 50 mg/kg, po SID for 10 days by geimsa staining based microscopic analysis; type: functional; set-up: scale not given: the % may be the effect or the level left; conditions: time 10 day
[10] = Half life in golden hamster infected with Leishmania infantum MHOM/MA(BE)/67 amastigotes at 50 mg/kg, po SID and measured after 24 hrs by LC-MS/MS analysis; type: ADME, organism-based, Mesocricetus auratus; conditions: in vivo
[11] = AUC (0 to 8) in golden hamster infected with Leishmania infantum MHOM/MA(BE)/67 amastigotes at 50 mg/kg, po SID and measured after 24 hrs by LC-MS/MS analysis; type: ADME, organism-based, Mesocricetus auratus; set-up: dose 50 mg/kg, time 24 hrs, route po; conditions: in vivo
[12] = Half life in golden hamster infected with Leishmania infantum MHOM/MA(BE)/67 amastigotes at 50 mg/kg, po SID and measured after 10 days by LC-MS/MS analysis; type: ADME, organism-based, Mesocricetus auratus; conditions: in vivo, time 10 day
[13] = AUC (0 to 24) in golden hamster infected with Leishmania infantum MHOM/MA(BE)/67 amastigotes at 50 mg/kg, po SID and measured after 10 days by LC-MS/MS analysis; type: ADME, organism-based, Mesocricetus auratus; set-up: dose 50 mg/kg, time 10 day, route po; conditions: in vivo
[14] = Clearance in golden hamster infected with Leishmania infantum MHOM/MA(BE)/67 amastigotes at 50 mg/kg, po SID and measured after 10 days by LC-MS/MS analysis; type: ADME, organism-based, Mesocricetus auratus; conditions: in vivo, time 10 day
[15] = Toxicity in golden hamster infected with Leishmania infantum MHOM/MA(BE)/67 amastigotes assessed as gross pathological changes at 50 mg/kg, po SID and measured after 10 days; type: organism-based, Mesocricetus auratus; conditions: in vivo, 240 h, time 10 day

Cc1ncnc2c1c(-c1cc(Cl)ccn1)cn2[C@@H]1O[C@H](CO)[C@@H](O)[C@H]1O
CC50 at 120 h [1]: > 64000 nM
EC50 (Leishmania infantum [2]): 790 nM
EC50 (Trypanosoma cruzi): 830 nM
remaining at 1 h [3]: 87%
remaining at 0.25 h [4]: 109%
remaining at 0.25 h (Cytochrome P450 [5]): 92%
remaining at 1 h (Cytochrome P450 [6]): 75%
Activity (Leishmania infantum [7]): 52.7%
Activity (Leishmania infantum [8]): -1.8%
Activity (Leishmania infantum [9]): 30.8%
half-life [10]: 2.7 h
AUC at 24 h [11]: 1660 ng·h/mL
half-life [12]: 1.7 h
AUC at 240 h [13]: 3380 ng·h/mL
CL/F [14]: 34.7 mL/min/kg
Activity [15]: Non-Toxic
